# Activity calls are given as the source filed them. The rule behind the calls is not given here.
# Experiments:
# [1] = Cytotoxicity in human HaCaT cells assessed as cell viability at 7.8 uM after 24 hrs by neutral red uptake assay relative to control; assay type: cell-based; conditions: read-out: Activity
# [2] = Stability of the compound in pH 6 solution at 10^-4 M after 24 hrs by HPLC analysis; assay type: physicochemical; conditions: read-out: Stability
# NHDF [3] = experiment: Potency index, ratio of compound effect to rosmarinic acid effect for cytoprotection against phototoxicity in human NHDF cells assessed as increase in cell viability at 3.9 uM preincubated for 60 mins followed by 7.5 J/cm2 UVA irradiation and measured after 24 hrs by neutral red uptake assay; assay type: functional
# [4] = Cytotoxicity in human NHDF cells assessed as cell viability at 15.6 uM after 24 hrs by neutral red uptake assay relative to control; assay type: cell-based; conditions: read-out: Activity
# [5] = Phototoxicity in human HaCaT cells assessed as cell viability at 31.3 uM preincubated for 60 mins followed by 7.5 J/cm2 UVA irradiation and measured after 24 hrs by neutral red uptake assay relative to control; assay type: cell-based; conditions: read-out: Activity
# [6] = Phototoxicity in human HaCaT cells assessed as cell viability at 3.9 uM preincubated for 60 mins followed by 7.5 J/cm2 UVA irradiation and measured after 24 hrs by neutral red uptake assay relative to control; assay type: cell-based; conditions: read-out: Activity
# [7] = Phototoxicity in human NHDF cells assessed as cell viability at 3.9 uM preincubated for 60 mins followed by 5 J/cm2 UVA irradiation and measured after 24 hrs by neutral red uptake assay relative to control; assay type: cell-based; conditions: read-out: Activity
# HaCaT [8] = experiment: Potency index, ratio of compound effect to rosmarinic acid effect for cytoprotection against phototoxicity in human HaCaT cells assessed as increase in cell viability at 3.9 uM preincubated for 60 mins followed by 10 J/cm2 UVA irradiation and measured after 24 hrs by neutral red uptake assay; assay type: functional
# [9] = Stability of the compound in pH 4 solution at 10^-4 M after 24 hrs by HPLC analysis; assay type: physicochemical; conditions: read-out: Stability
# [10] = Cytotoxicity in human HaCaT cells assessed as cell viability at 3.9 uM after 24 hrs by neutral red uptake assay relative to control; assay type: cell-based; conditions: read-out: Activity
# [11] = Stability of the compound in pH 3 solution at 10^-4 M after 24 hrs by HPLC analysis; assay type: physicochemical; conditions: read-out: Stability
# [12] = Stability of the compound in pH 4 solution at 10^-4 M after 1 hr by HPLC analysis; assay type: physicochemical; conditions: read-out: Stability
# [13] = Cytotoxicity in human NHDF cells assessed as cell viability at 31.3 uM after 24 hrs by neutral red uptake assay relative to control; assay type: cell-based; conditions: read-out: Activity
# [14] = Phototoxicity in human NHDF cells assessed as cell viability at 125 uM preincubated for 60 mins followed by 5 J/cm2 UVA irradiation and measured after 24 hrs by neutral red uptake assay relative to control; assay type: cell-based; conditions: read-out: Activity
# NHDF [15] = experiment: Cytoprotection against phototoxicity in human NHDF cells assessed as increase in cell viability at 31.3 uM preincubated for 60 mins followed by 150 mJ/cm2 UVB irradiation and measured after 24 hrs by neutral red uptake assay; assay type: functional, cell-based
# [16] = Cytotoxicity in human NHDF cells assessed as cell viability at 62.5 uM after 24 hrs by neutral red uptake assay relative to control; assay type: cell-based; conditions: read-out: Activity
# Caenorhabditis elegans = experiment: Protection against juglone-induced oxidative stress in wild type Caenorhabditis elegans N2 at 100 uM preincubated for 3 days followed by juglone addition and measured after 4 hrs by inverted microscopic analysis; assay type: functional, organism-based
# Nicotiana tabacum = experiment: Growth promoting activity in tobacco callus assessed as callus weight at 10^-5 mol/L after 4 weeks relative to control; assay type: functional
# [17] = Phototoxicity in human NHDF cells assessed as cell viability at 7.8 uM preincubated for 60 mins followed by 5 J/cm2 UVA irradiation and measured after 24 hrs by neutral red uptake assay relative to control; assay type: cell-based; conditions: read-out: Activity
# [18] = Cytotoxicity in human NHDF cells assessed as cell viability at 7.8 uM after 24 hrs by neutral red uptake assay relative to control; assay type: cell-based; conditions: read-out: Activity
# HaCaT [19] = experiment: Potency index, ratio of compound effect to rosmarinic acid effect for cytoprotection against phototoxicity in human HaCaT cells assessed as increase in cell viability at 3.9 uM preincubated for 60 mins followed by 150 mJ/cm2 UVB irradiation and measured after 24 hrs by neutral red uptake assay; assay type: functional
# [20] = Cytotoxicity in human HaCaT cells assessed as cell viability at 31.3 uM after 24 hrs by neutral red uptake assay relative to control; assay type: cell-based; conditions: read-out: Activity
# [21] = Cytotoxicity in human HaCaT cells assessed as cell viability at 125 uM after 24 hrs by neutral red uptake assay relative to control; assay type: cell-based; conditions: read-out: Activity
# [22] = Stability of the compound in pH 6 solution at 10^-4 M after 1 hr by HPLC analysis; assay type: physicochemical; conditions: read-out: Stability
# HaCaT [23] = experiment: Cytoprotection against phototoxicity in human HaCaT cells assessed as increase in cell viability at 3.9 uM preincubated for 60 mins followed by 10 J/cm2 UVA irradiation and measured after 24 hrs by neutral red uptake assay; assay type: functional, cell-based
# [24] = Phototoxicity in human NHDF cells assessed as cell viability at 62.5 uM preincubated for 60 mins followed by 5 J/cm2 UVA irradiation and measured after 24 hrs by neutral red uptake assay relative to control; assay type: cell-based; conditions: read-out: Activity
# [25] = Phototoxicity in human NHDF cells assessed as cell viability at 15.6 uM preincubated for 60 mins followed by 5 J/cm2 UVA irradiation and measured after 24 hrs by neutral red uptake assay relative to control; assay type: cell-based; conditions: read-out: Activity
# Triticum aestivum = experiment: Anti-senescent activity in leaf of Triticum aestivum cv. Hereward seedlings by measuring chlorophyll retention at 10^-4 mol/L after 4 days relative to control; assay type: functional
# BJ = experiment: Cytotoxicity in human BJ cells assessed as reduction in cell viability at 50 uM after 24 hrs by resazurin dye-based fluorescence assay relative to control
# HaCaT [26] = experiment: Cytoprotection against phototoxicity in human HaCaT cells assessed as increase in cell viability at 3.9 to 31.3 uM preincubated for 60 mins followed by 10 J/cm2 UVA irradiation and measured after 24 hrs by neutral red uptake assay; assay type: functional, cell-based
# [27] = Stability of the compound in pH 5 solution at 10^-4 M after 24 hrs by HPLC analysis; assay type: physicochemical; conditions: read-out: Stability
# [28] = Cytotoxicity in human HaCaT cells assessed as cell viability at 62.5 uM after 24 hrs by neutral red uptake assay relative to control; assay type: cell-based; conditions: read-out: Activity
# [29] = Cytotoxicity in human NHDF cells assessed as cell viability at 125 uM after 24 hrs by neutral red uptake assay relative to control; assay type: cell-based; conditions: read-out: Activity
# [30] = Phototoxicity in human HaCaT cells assessed as cell viability at 62.5 uM preincubated for 60 mins followed by 7.5 J/cm2 UVA irradiation and measured after 24 hrs by neutral red uptake assay relative to control; assay type: cell-based; conditions: read-out: Activity
# [31] = Stability of the compound in pH 5 solution at 10^-4 M after 1 hr by HPLC analysis; assay type: physicochemical; conditions: read-out: Stability
# HaCaT [32] = experiment: Cytotoxicity in human HaCaT cells assessed as reduction in cell viability at 50 uM after 24 hrs by resazurin dye-based fluorescence assay relative to control
# [33] = Phototoxicity in human HaCaT cells assessed as cell viability at 7.8 uM preincubated for 60 mins followed by 7.5 J/cm2 UVA irradiation and measured after 24 hrs by neutral red uptake assay relative to control; assay type: cell-based; conditions: read-out: Activity
smiles,measurement,setting,value
c1csc(CNc2ncnc3c2ncn3C2CCCO2)c1 (configuration not stated),"viability at 24 h, 7.8 µM",[1],101%
same,"remaining at 24 h, 100 µM",[2],100%
same,Ratio,NHDF [3],>6
same,"viability at 24 h, 15.6 µM",[4],100%
same,"viability at 24 h, 31.3 µM",[5],128%
same,"viability at 24 h, 3.9 µM",[6],123%
same,"viability at 24 h, 3.9 µM",[7],98%
same,Ratio,HaCaT [8],3
same,"remaining at 24 h, 100 µM",[9],52.1%
same,"viability at 24 h, 3.9 µM",[10],101%
same,"remaining at 24 h, 100 µM",[11],0.8%
same,"remaining at 1 h, 100 µM",[12],99.4%
same,"viability at 24 h, 31.3 µM",[13],107%
same,"viability at 24 h, 125 µM",[14],106%
same,Activity,NHDF [15],Active
same,"viability at 24 h, 62.5 µM",[16],108%
same,Activity,Caenorhabditis elegans,Active
same,Activity,Nicotiana tabacum,105%
same,"viability at 24 h, 7.8 µM",[17],102%
same,"viability at 24 h, 7.8 µM",[18],103%
same,Ratio,HaCaT [19],>2
same,"viability at 24 h, 31.3 µM",[20],102%
same,"viability at 24 h, 125 µM",[21],103%
same,"remaining at 1 h, 100 µM",[22],100%
same,Activity,HaCaT [23],Active
same,"viability at 24 h, 62.5 µM",[24],103%
same,"viability at 24 h, 15.6 µM",[25],101%
same,Activity,Triticum aestivum,102%
same,Activity,BJ,< 10%
same,Activity,HaCaT [26],Active
same,"remaining at 24 h, 100 µM",[27],94.2%
same,"viability at 24 h, 62.5 µM",[28],104%
same,"viability at 24 h, 125 µM",[29],108%
same,"viability at 24 h, 62.5 µM",[30],130%
same,"remaining at 1 h, 100 µM",[31],100%
same,Activity,HaCaT [32],< 10%
same,"viability at 24 h, 7.8 µM",[33],124%
